Measured values reported in patent US5276053A, “Polycyclic amines useful as cerebrovascular agents” (Warner-Lambert Company, priority 1992, dated 1994).
Structures can show the parent of a compound that is named as a salt.

What was measured:
[1] = test system: cultured rat cortical neurons; test: Inhibition of glutamate stimulated [^45 Ca] influx (GCI) into cultured rat cortical neurons; type: cell-based; details: Cortical neurone, read-out: CGCI IC50
Excerpt: (§1) Since the influx of calcium is thought to be central to the damage resulting from ischemia, the ability of the compounds of the instant invention to inhibit the hypoxia and glutamate-stimulated influx of calcium into cultured rat cortical neurons (an assay representative of cerebrovascular disorders resulting from stroke or brain injury) is shown in Table 2 and Table 3, respectively. The methodology for determining the ability of the compounds of the instant invention to inhibit the glutamate-stimulated calcium influx (GCI) into cultured rat cortical neurons is to be found in: A. W. Probert and F. W. Marcoux, Soc. Neurosci. Abstr. 13, Part II, 754 (1987). Using a similar culture system, the ability of the compounds of the instant invention to inhibit the hypoxia-stimulated influx of calcium (HCI) was determined by incubating cultured cells in an atmosphere of nitrogen (95%) and CO2 (5%) at 37° C. for a period of four hours. Calcium influx was determined by subtraction of the stimulated influx in the presence of tetrodotoxin (3 μM) and magnesium (10 mM) from that found in the absence (control) and in the presence of the test substance.

[2] = test system: cultured rat cortical neurons; test: Inhibition of hypoxia stimulated [^45 Ca] influx (HCI) into cultured rat cortical neurons; type: cell-based; details: Cortical neurone, 4 h, hypoxia stimulated [^45 Ca] influx (CHCI), Table 3, nitrogen (95%) and CO2 (5%), 37° C., four hours, read-out: CGCI IC50
Excerpt: as §1

[3] = biological target: phencyclidine (PCP) receptors; test: Inhibition of [^3 H]TCP receptor binding (RBS1)
Protocol: The ability of the compounds of the instant invention to interact with phencyclidine (PCP) receptors which represents a noncompetitive NMDA antagonist binding site, is shown in Table 1. Tritiated 1[1-(2-thienyl)cyclohexyl]piperidine (TCP) binding, designated RBS1, was carried out essentially as described in J. Pharmacol. Exp. Ther., 238, 739-749 (1986).

| Structure (SMILES) | IC50 [1] | IC50 [2] | IC50 [3] |
| --- | --- | --- | --- |
| CNC12CCCCC1Sc1ccccc12 (stereo not drawn) [* (X = S), reference compound] | 210 nM | 180 nM | – |
| C=CCN[C@]12CCCC[C@H]1CCc1ccccc12 (relative stereo) [Example 5, N-Allyl-cis-1,3,4,9,10,10a-hexahydro-4a(2H)-phenanthrenamine monohydrochloride] | 902 nM | 660 nM | 100 nM |
| c1csc(C2(N3CCCCC3)CCCCC2)c1 [TCP, 1[1-(2-thienyl)cyclohexyl]piperidine] | – | – | 9 nM |
| CNC12CCCCC1Cc1ccccc12 (stereo not drawn) [* (X = CH2)] | – | – | 16 nM |
| N[C@]12CCCC[C@H]1CCc1ccccc12 (relative stereo) [Example 2, Cis-1,3,4,9-10,10a-hexahydro-4a(2H)-phenanthrenamine monohydrochloride] | 100 nM | – | 20 nM |
| CN[C@]12CCCC[C@H]1CCc1ccccc12 (relative stereo) [Example 4, Cis-1,3,4,9,10,10a-hexahydro-N-methyl-4a(2H)-phenanthrenamine monohydrochloride] | 410 nM | 180 nM | 15 nM |
